Measurements published in patent publication US20160297830A1, “NOVEL COMPOUNDS USEFUL FOR THE TREATMENT OF BACTERIAL INFECTIOUS DISEASES” (GALAPAGOS NV, priority 2013, published 2016).
≈ marks a conversion by molar mass, not a printed value. Read-outs that look alike come from different tables or passages of the source.

Experiments:
[1] = biological target: DNA Polymerase IIIα (DnaE) from Staphylococcus aureus (Staphylococcus aureus, UniProt Q6GG04); assay: biochemical
[2] = system: H. influenza Hi47 clinical strain, Ampicillin Resistant; assay: organism not typed; assay type: cell-based; conditions: read-out: MIC Hi47
E. coli Ec1 ATCC 25922 = assay: Antibacterial activity assay (MIC), E. coli Ec1; assay type: cell-based; conditions: Escherichia coli, ATCC25922, read-out: MIC Ec1
[3] = system: E. coli Ec113 efflux pump KO; assay: microbe, parasite or virus in culture; assay type: cell-based; conditions: Escherichia coli, read-out: MIC Ec113 efflux pump KO
[4] = system: S. aureus Sa26 ATCC 25923; assay: Antibacterial activity assay (MIC), S. aureus Sa26; assay type: cell-based; conditions: Staphylococcus aureus
S. aureus Sa1 ATCC 13709 = assay: microbe, parasite or virus in culture; assay type: cell-based; conditions: Staphylococcus aureus, ATCC13709, read-out: MIC Sa1
S. aureus Sa4 NCTC 6571 = assay: Antibacterial activity assay (MIC), S. aureus Sa4; assay type: cell-based; conditions: Staphylococcus aureus, NCTC6571, read-out: MIC Sa4
[5] = system: H. influenza Hi3 ATCC 31517; assay: organism not typed; assay type: cell-based; conditions: read-out: MIC Hi3
[6] = system: Methicillin Resistant S. aureus (MRSA); assay: Neutropenic mouse thigh infection model; conditions: Thigh Sa
[7] = system: E. coli Ec50 efflux pump KO; assay: microbe, parasite or virus in culture; assay type: cell-based; conditions: Escherichia coli, read-out: MIC Ec50 efflux pump KO
[8] = system: H. influenza Hi106 ATCC 51907; assay: organism not typed; assay type: cell-based; conditions: read-out: MIC Hi106
DNA III Polymerase E = DNA III Polymerase E (Escherichia coli, UniProt P10443); assay: In vitro activity against DNA III Polymerase E, E. coli; assay type: biochemical; conditions: DNA polymerase III, E. coli; read-out: IC50 semiquantitative scoring, E. coli
Chain of DNA III Polymerase E (P10443 whole entry): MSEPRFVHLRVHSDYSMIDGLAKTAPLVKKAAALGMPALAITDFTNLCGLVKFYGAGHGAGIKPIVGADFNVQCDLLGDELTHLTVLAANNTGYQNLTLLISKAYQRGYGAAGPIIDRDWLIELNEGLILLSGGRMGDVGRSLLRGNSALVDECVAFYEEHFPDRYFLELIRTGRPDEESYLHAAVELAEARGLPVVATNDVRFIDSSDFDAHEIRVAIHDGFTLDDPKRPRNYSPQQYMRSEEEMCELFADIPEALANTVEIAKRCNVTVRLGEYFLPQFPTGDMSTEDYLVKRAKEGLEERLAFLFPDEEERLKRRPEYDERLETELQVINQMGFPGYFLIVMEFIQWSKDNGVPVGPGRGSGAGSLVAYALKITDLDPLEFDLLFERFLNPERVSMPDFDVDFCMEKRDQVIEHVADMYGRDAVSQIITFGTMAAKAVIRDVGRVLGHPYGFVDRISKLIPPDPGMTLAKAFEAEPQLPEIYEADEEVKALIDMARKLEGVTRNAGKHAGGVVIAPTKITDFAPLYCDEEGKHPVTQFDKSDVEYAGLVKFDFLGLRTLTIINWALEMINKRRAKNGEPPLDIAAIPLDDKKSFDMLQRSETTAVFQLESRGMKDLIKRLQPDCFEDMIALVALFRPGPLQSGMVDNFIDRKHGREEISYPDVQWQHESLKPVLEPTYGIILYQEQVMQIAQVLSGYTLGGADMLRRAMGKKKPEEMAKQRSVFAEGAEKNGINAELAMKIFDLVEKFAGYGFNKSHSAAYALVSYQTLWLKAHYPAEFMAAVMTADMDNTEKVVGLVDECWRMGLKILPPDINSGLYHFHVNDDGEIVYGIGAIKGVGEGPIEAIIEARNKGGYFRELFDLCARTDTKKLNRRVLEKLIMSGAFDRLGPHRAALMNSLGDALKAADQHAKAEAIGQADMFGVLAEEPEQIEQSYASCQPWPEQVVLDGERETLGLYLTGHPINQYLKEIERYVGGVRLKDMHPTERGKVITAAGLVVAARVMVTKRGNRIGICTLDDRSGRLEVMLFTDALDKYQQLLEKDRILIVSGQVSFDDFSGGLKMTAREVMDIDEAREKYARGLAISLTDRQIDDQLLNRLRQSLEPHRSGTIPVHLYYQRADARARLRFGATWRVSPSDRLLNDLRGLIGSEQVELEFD
Outline: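 Recombinant enzyme (0.47 μg/mL diluted stock) in 20 mM Tris pH7.5, 8 mM DTT, 10 mM MgOAc, 0.05% CHAPS met compound series from 100 μM top, 1/5 steps. Activated calf thymus DNA, dNTPs and [α-33P]-dTTP substrate were added, and incubation ran 120 min at 30° C. IC50 came from filter-captured incorporated radioactivity versus controls.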

[9] = system: Methicillin Resistant S. aureus Sa2 (MRSA); assay: animal or person; assay type: in vivo; conditions: lung
[10] = system: H. influenza Hi10 clinical strain; assay: organism not typed; assay type: cell-based; conditions: read-out: MIC Hi10
[11] = system: S. aureus Sa2 clinical strain NCIMB 41953, MRSA; assay: microbe, parasite or virus in culture; assay type: cell-based; conditions: Staphylococcus aureus, read-out: MIC Sa2
[12] = system: Methicillin Resistant S. aureus Sa2 (MRSA); assay type: in vivo; conditions: Groin Sa, Study 2; 50 mg/kg PO BID; sample time 31 h post infection
[13] = Study 2, 50 mg/kg IP BID, sample time 7 h PI
[14] = Study 4, 5 mg/kg IP BID, sample time 24 h PI
[15] = Study 4, 15 mg/kg IP BID, sample time 24 h PI
[16] = Study 4, 50 mg/kg IP BID, sample time 24 h PI
[17] = Study 5, 5 mg/kg IV BID, sample time 24 h PI
[18] = Study 6, 25 mg/kg IV BID, sample time 24 h PI
[19] = Study 7, 15 mg/kg PO BID, sample time 24 h PI
[20] = Study 7, 50 mg/kg PO BID, sample time 24 h PI
[21] = Study 8, 50 mg/kg PO QD, sample time 48 h PI

Chain of DNA Polymerase IIIα (DnaE) from Staphylococcus aureus (Q6GG04 1-1022): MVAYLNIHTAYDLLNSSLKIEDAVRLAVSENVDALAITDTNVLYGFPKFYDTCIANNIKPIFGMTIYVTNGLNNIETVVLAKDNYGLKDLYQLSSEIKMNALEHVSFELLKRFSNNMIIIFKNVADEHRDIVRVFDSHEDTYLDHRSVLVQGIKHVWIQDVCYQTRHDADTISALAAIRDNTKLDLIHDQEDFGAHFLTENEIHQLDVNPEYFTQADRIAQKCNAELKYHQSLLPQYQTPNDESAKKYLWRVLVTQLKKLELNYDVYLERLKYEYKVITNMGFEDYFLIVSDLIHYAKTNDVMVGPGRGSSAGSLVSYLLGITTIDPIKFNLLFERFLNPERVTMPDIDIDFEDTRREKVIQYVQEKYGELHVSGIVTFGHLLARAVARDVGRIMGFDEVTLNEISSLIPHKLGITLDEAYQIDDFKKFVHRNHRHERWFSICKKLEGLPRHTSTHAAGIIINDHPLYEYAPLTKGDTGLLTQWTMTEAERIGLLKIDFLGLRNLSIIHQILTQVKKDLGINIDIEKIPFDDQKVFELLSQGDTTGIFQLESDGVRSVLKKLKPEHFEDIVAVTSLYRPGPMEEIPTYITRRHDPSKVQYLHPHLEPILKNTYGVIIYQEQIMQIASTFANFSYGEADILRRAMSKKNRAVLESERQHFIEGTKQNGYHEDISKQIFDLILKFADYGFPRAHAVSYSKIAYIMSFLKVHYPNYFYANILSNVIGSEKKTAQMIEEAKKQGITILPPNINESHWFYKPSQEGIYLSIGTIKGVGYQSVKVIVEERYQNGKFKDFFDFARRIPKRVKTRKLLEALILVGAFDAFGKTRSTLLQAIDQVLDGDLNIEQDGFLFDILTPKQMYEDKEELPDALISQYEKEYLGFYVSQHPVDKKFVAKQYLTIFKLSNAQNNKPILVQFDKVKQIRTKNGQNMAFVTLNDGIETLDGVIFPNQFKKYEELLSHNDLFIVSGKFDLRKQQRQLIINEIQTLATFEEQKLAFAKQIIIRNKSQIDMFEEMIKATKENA

Work on `COC[C@@H]1[C@@H](O)[C@@H]2[C@H]3C=C[C@@H]4[C@@H](COC)C(=O)O[C@H]([C@H](O)COC)[C@H](C)/C=C(\C)[C@@]24O[C@H]3[C@@H]1OC(=O)c1ccc[nH]1` [Compound 2, 8-O-1H-pyrrole-2′-carbonylbranimycin] yielded an IC50 [1] of 0.00174 to 1.74 µM, an MIC [2] of over 64 µg/mL and an MIC (E. coli Ec1 ATCC 25922) of over 64 µg/mL. It also gave an MIC [3] of 1 µg/mL (≈ 1.74 µM), an MIC ([4]; ATCC25923, read-out: MIC Sa26) of 1 µg/mL (≈ 1.74 µM) and an MIC ([4]; ATCC25923, read-out: MIC Sa26 + 10% SH) of 1 µg/mL. The MIC ([4]; ATCC25923, read-out: MIC Sa26 + 50% SH) was 2 µg/mL, the MIC (S. aureus Sa1 ATCC 13709) was 1 µg/mL (≈ 1.74 µM) and the MIC (S. aureus Sa4 NCTC 6571) was 1 µg/mL (≈ 1.74 µM). The MIC [5] was over 64 µg/mL, the Active [6, 13] was “Y” and the “Log reduction vs. untreated” value [6, 13] was −3.55. The Active [6, 14] was “N”, the “Log reduction vs. untreated” value [6, 14] was −1.16 and the Active [6, 15] was “Y”. The “Log reduction vs. untreated” value [6, 15] was −3.32, the Active [6, 16] was “Y” and the “Log reduction vs. untreated” value [6, 16] was −4.74. The Active [6, 17] was “N”, the “Log reduction vs. untreated” value [6, 17] was −0.13 and the Active [6, 18] was “Y”. For the same molecule, the “Log reduction vs. untreated” value [6, 18] was −3.92, the Active [6, 19] was “Y” and the “Log reduction vs. untreated” value [6, 19] was −4.13. For the same molecule, the Active [6, 20] was “Y”, the “Log reduction vs. untreated” value [6, 20] was −6.72 and the Active [6, 21] was “Y”. The “Log reduction vs. untreated” value [6, 21] was −4.63, the MIC [7] was 16 µg/mL (≈ 27.8 µM) and the MIC [8] was over 64 µg/mL. It also gave an IC50 (DNA III Polymerase E) of 1.74 to 17.4 µM, a log reduction at 50 mg/kg ([9]; Staphylococcus aureus, MRSA, in Mus musculus, po, 24 h, read-out: Log reduction vs. untreated, Study 1, 50 mg/kg PO BID, sample 24 h post infection) of 3.36 and a log reduction at 15 mg/kg ([9]; Staphylococcus aureus, MRSA, in Mus musculus, po, 24 h, read-out: Log reduction vs. untreated, Study 2, 15 mg/kg PO BID, sample 24 h post infection) of 3.91. For the same molecule, the log reduction at 50 mg/kg ([9]; Staphylococcus aureus, MRSA, in Mus musculus, po, 24 h, read-out: Log reduction vs. untreated, Study 2, 50 mg/kg PO BID, sample 24 h post infection) was 2.99, the log reduction at 6.25 mg/kg ([9]; Staphylococcus aureus, MRSA, in Mus musculus, po, 24 h, read-out: Log reduction vs. untreated, Study 4, 6.25 mg/kg PO BID, sample 24 h post infection) was 0.04 and the log reduction at 12.5 mg/kg ([9]; Staphylococcus aureus, MRSA, in Mus musculus, po, 24 h, read-out: Log reduction vs. untreated, Study 4, 12.5 mg/kg PO BID, sample 24 h post infection) was 1.9. It also gave a log reduction at 25 mg/kg ([9]; Staphylococcus aureus, MRSA, in Mus musculus, po, 24 h, read-out: Log reduction vs. untreated, Study 4, 25 mg/kg PO BID, sample 24 h post infection) of 3.48, a log reduction at 5 mg/kg ([9]; Staphylococcus aureus, MRSA, in Mus musculus, po, 72 h, read-out: Log reduction vs. untreated, Study 5, 5 mg/kg PO QD, sample 72 h post infection) of 1.57 and a log reduction at 15 mg/kg ([9]; Staphylococcus aureus, MRSA, in Mus musculus, po, 72 h, read-out: Log reduction vs. untreated, Study 5, 15 mg/kg PO QD, sample 72 h post infection) of 3.62. The log reduction at 25 mg/kg ([9]; Staphylococcus aureus, MRSA, in Mus musculus, po, 72 h, read-out: Log reduction vs. untreated, Study 6, 25 mg/kg PO QD, sample 72 h post infection) was 3.65, the Active ([9]; Study 1, 50 mg/kg PO BID, sample 24 h post infection) was “Y” and the Active ([9]; Study 2, 15 mg/kg PO BID, sample 24 h post infection) was “Y”. For the same molecule, the Active ([9]; Study 2, 50 mg/kg PO BID, sample 24 h post infection) was “Y”, the Active ([9]; Study 4, 6.25 mg/kg PO BID, sample 24 h post infection) was “N” and the Active ([9]; Study 4, 12.5 mg/kg PO BID, sample 24 h post infection) was “Y”. For the same molecule, the Active ([9]; Study 4, 25 mg/kg PO BID, sample 24 h post infection) was “Y”, the Active ([9]; Study 5, 5 mg/kg PO QD, sample 72 h post infection) was “Y” and the Active ([9]; Study 5, 15 mg/kg PO QD, sample 72 h post infection) was “Y”. For the same molecule, the Active ([9]; Study 6, 25 mg/kg PO QD, sample 72 h post infection) was “Y”, the MIC [10] was over 64 µg/mL and the MIC [11] was 0.5 µg/mL (≈ 0.869 µM). The Active [12] was “Y” and the “Log reduction vs. untreated” value [12] was −2.52.
